From patent US20260207563A1, “UREA COMPOUNDS AS ACTIVATORS OF POTASSIUM CHANNELS KV7.2/7.3 USEFUL IN THE TREATMENT OF CNS AND PNS DISORDERS” (ANGELINI PHARMA S.P.A., priority 2022, published 2026) come the findings set out here.

Common to all, as to assay type: cell-based
Assay [1] addresses T1, heteromeric KV7.2/KV7.3 channels (KCNQ2, KCNQ3) (Homo sapiens, UniProt O43525+O43526).
T1 construct: expressed in transfected cells; host or cells: CHO-K1
The assay can be described thus: Automated patch-clamp (Sophion Qube 384) potency assay against KV7.2/KV7.3 channels. Particulars: CHO-K1/Kv7.2/Kv7.3 cells; for EC50: EC50 from concentration-response of shift in Vhalf, 10 concentrations up to 30 μM, read-out: Kv7.2/7.3 EC50; for Kv7.2/7.3 ΔV1/2: maximal shift in the Vhalf from the top of the curve. In a few lines:
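Activator potency: EC50 from 4-parameter logistic fit of mean Vhalf shift across ten 1-in-3 dilutions starting at 30 μM (n=4), with DMSO (typically 0.3%) control. Currents recorded by leak-subtracted whole-cell clamp of stable CHO-K1 KV7.2/KV7.3 cells, held at −80 mV, stepped −100 to +20 mV then 0 mV tails.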
(In general: Patch clamp records ionic current or voltage across a cell membrane.)

In assay [2] the target is T2, heteromeric KV7.3/KV7.5 channel (KCNQ3, KCNQ5) (Homo sapiens, UniProt O43525+Q9NR82).
T2 construct: host or cells: HEK293
Put plainly: Automated patch-clamp counter-screening against KV7.3/KV7.5 channel. Particulars: HEK293 cells expressing Kv7.3/KV7.5; class by maximal shift in the Vhalf at 30 μM. As to the method: Assessment of in vitro potency against KV7.3/KV7.5 channels
Counter-screening was also carried out against the heteromeric KV7.3/KV7.5 channel (KCNQ3, Uniprot ID 043525; KCNQ5, Uniprot ID Q9NR82). The cell line used was a stably transfected HEK293 cell line with constitutive Kv7.3 expression and tetracycline inducible KV7.5 expression supplied by Charles River Laboratories.
Cells were maintained in the following culture media: • DMEM/F-12 with GlutaMAX™ (Life Technologies 31331-028), • 10% Tet Systems FCS (Clonetech 631106), • 500 μg/ml Geneticin™ selective antibiotic (G418, Invitrogen 1013-027), • 5 μg/ml Blasticidin S HCl (InvivoGen ant-bl-5), and • 100 μg/ml Zeocin (InvivoGen: ant-zn-5).
(§1) Cell maintenance, preparation, recording conditions and voltage protocols were all identical to those above.
(§2) Analysis of Data for Assessment of Potency
(§3) 10 concentrations of test compounds were applied to individual wells in quadruplicate to assess potency as a 1 in 3 dilution series from the maximal concentration of 30 μM. The average shift in the voltage for half activation (Vhalf) for each concentration was used to generate concentration-response curves fitted with a 4-parameter logistic model to estimate the EC50 from the point of inflection of the curve and the maximal shift in the Vhalf from the top of the curve.
(§4) The lower the EC50 value, the higher the potency of the analyzed compound. The selectivity criteria is assigned on the basis of the maximal shift in the Vhalf at 30 μM. […] In Table 3, ND means that selectivity was not determined.

Assay [3] deals with T3, homomeric KV7.4 channel (KCNQ4) (Homo sapiens, UniProt P56696).
T3 construct: host or cells: CHO-K1
The assay can be described thus: Automated patch-clamp (Qube) counter-screening assay against KV7.4 channel. Particulars: CHO-K1 cells expressing KV7.4; class by maximal shift in the Vhalf at 30 μM.
Text: Assessment of In Vitro Potency Against KV7.4 Channels
A counter-screening assay was also developed on the Qube against the homomeric KV7.4 channel (KCNQ4, Uniprot ID P56696). The cell line used was a stably transfected CHO-K1 with constitutive KV7.4 expression supplied by Charles River Laboratories.
CHO-K1 cells stably expressing KV7.4 channels were maintained in the following culture media: • Hams F-12 with GlutaMAX™ (Life Technologies 31765027), • 10% Fetal clone 2 serum (Perbio Science SH30066.03), and • 250 μg/ml Geneticin™ selective antibiotic (G418, Invitrogen 1013-027).
as §1, §2, §3, §4

As for `COc1ccc2c(c1)OC[C@H]2NC(=O)NCc1ccnc(OCC(F)(F)F)c1` [Compound 166], in assay [1], the EC50 was 8430 nM and the “Kv7.2/7.3 ΔV1/2” value is on record as 52.09 mV. In assay [2], the Kv7.3/7.5 selectivity criteria entry is on record as “A (Selective compounds showed Kv7.4 and/or Kv7.3/7.5 ΔV1/2 equal to or lower than 15 mV (letter A in table 3))”. The Kv7.4 selectivity criteria result in assay [3] is “A (Selective compounds showed Kv7.4 and/or Kv7.3/7.5 ΔV1/2 equal to or lower than 15 mV (letter A in table 3))”.
For the compound `O=C(NCc1ccnc(OCC(F)(F)F)c1)NCC1CCCc2ccccc21` (centres unmarked) [Compound 141], in assay [1], the EC50 came out at 285 nM and the “Kv7.2/7.3 ΔV1/2” value came to 17.59 mV. The Kv7.3/7.5 selectivity criteria entry in assay [2] was “A (Selective compounds showed Kv7.4 and/or Kv7.3/7.5 ΔV1/2 equal to or lower than 15 mV (letter A in table 3))”. Further, the Kv7.4 selectivity criteria entry in assay [3] is given as “A (Selective compounds showed Kv7.4 and/or Kv7.3/7.5 ΔV1/2 equal to or lower than 15 mV (letter A in table 3))”.
Consider `O=C(NCc1ccnc(OCC(F)(F)F)c1)NCc1ccccc1Cl` [Compound 75, 1-(2-Chlorobenzyl)-3-((2-(2,2,2-trifluoroethoxy)pyridin-4-yl)methyl)urea], for which, in assay [1], the EC50 is 508 nM and the “Kv7.2/7.3 ΔV1/2” value was 25.35 mV. Moreover, in assay [2], the Kv7.3/7.5 selectivity criteria entry was “A (Selective compounds showed Kv7.4 and/or Kv7.3/7.5 ΔV1/2 equal to or lower than 15 mV (letter A in table 3))”. For the same compound, the Kv7.4 selectivity criteria entry in assay [3] is given as “B (Non-selective compounds showed Kv7.4 and/or Kv7.3/7.5 ΔV1/2 higher than 15 mV (letter B in table 3))”.
`CC1CC(NC(=O)NCc2ccnc(OCC(F)(F)F)c2)c2ccccc21` (centres unmarked) [Compound 139]: in assay [1], the EC50 was 2240 nM and the “Kv7.2/7.3 ΔV1/2” value was 34.89 mV. For the same compound, the Kv7.3/7.5 selectivity criteria entry in assay [2] was “A (Selective compounds showed Kv7.4 and/or Kv7.3/7.5 ΔV1/2 equal to or lower than 15 mV (letter A in table 3))”. For the same compound, the Kv7.4 selectivity criteria result in assay [3] is listed as “A (Selective compounds showed Kv7.4 and/or Kv7.3/7.5 ΔV1/2 equal to or lower than 15 mV (letter A in table 3))”.
Turning to `O=C(NCc1ccnc(OCC(F)(F)F)c1)NCC1CCC(F)(F)CC1` [Compound 70, 1-((4,4-Difluorocyclohexyl)methyl)-3-((2-(2,2,2-trifluoroethoxy)pyridin-4-yl)methyl)urea], in assay [1], the EC50 turned out to be 975 nM and the “Kv7.2/7.3 ΔV1/2” value amounted to 26.04 mV. Besides, the Kv7.3/7.5 selectivity criteria entry in assay [2] is reported as “A (Selective compounds showed Kv7.4 and/or Kv7.3/7.5 ΔV1/2 equal to or lower than 15 mV (letter A in table 3))”. Also, the Kv7.4 selectivity criteria entry in assay [3] is reported as “A (Selective compounds showed Kv7.4 and/or Kv7.3/7.5 ΔV1/2 equal to or lower than 15 mV (letter A in table 3))”.
Regarding `O=C(NCc1ccnc(OCC(F)(F)F)c1)NC1CCc2sccc21` (centres unmarked) [Compound 144], in assay [1], the EC50 turned out to be 2680 nM and the “Kv7.2/7.3 ΔV1/2” value is on record as 23.26 mV. In addition, in assay [2], the Kv7.3/7.5 selectivity criteria result is reported as “A (Selective compounds showed Kv7.4 and/or Kv7.3/7.5 ΔV1/2 equal to or lower than 15 mV (letter A in table 3))”. Further, the Kv7.4 selectivity criteria result in assay [3] is given as “A (Selective compounds showed Kv7.4 and/or Kv7.3/7.5 ΔV1/2 equal to or lower than 15 mV (letter A in table 3))”.
Regarding `O=C(NCCC1(C(F)(F)F)CC1)NCc1ccnc(OCC(F)(F)F)c1F` [Compound 90], in assay [1], the EC50 came out at 237 nM and the “Kv7.2/7.3 ΔV1/2” value is 20.86 mV. For the same compound, the Kv7.3/7.5 selectivity criteria entry in assay [2] is listed as “A (Selective compounds showed Kv7.4 and/or Kv7.3/7.5 ΔV1/2 equal to or lower than 15 mV (letter A in table 3))”. Moreover, the Kv7.4 selectivity criteria entry in assay [3] was “A (Selective compounds showed Kv7.4 and/or Kv7.3/7.5 ΔV1/2 equal to or lower than 15 mV (letter A in table 3))”.
For the compound `O=C(N[C@@H](CO)c1ccnc(OCC(F)(F)F)c1)N[C@@H]1CCc2ccc(F)cc21` [Compound 101], in assay [1], the EC50 was 2640 nM and the “Kv7.2/7.3 ΔV1/2” value came to 38.71 mV. In assay [2], the Kv7.3/7.5 selectivity criteria entry is on record as “B (Non-selective compounds showed Kv7.4 and/or Kv7.3/7.5 ΔV1/2 higher than 15 mV (letter B in table 3))”. Moreover, in assay [3], the Kv7.4 selectivity criteria result is “B (Non-selective compounds showed Kv7.4 and/or Kv7.3/7.5 ΔV1/2 higher than 15 mV (letter B in table 3))”.
In the case of `O=C(NCCC1(C(F)(F)F)CC1)NCc1ccnc(OCc2ccc(F)cc2F)c1` [Compound 25, 1-((2-((2,4-Difluorobenzyl)oxy)pyridin-4-yl)methyl)-3-(2-(1-(trifluoromethyl)cyclopropyl)ethyl)urea], in assay [1], the EC50 came to 400 nM and the “Kv7.2/7.3 ΔV1/2” value was 25.77 mV. The Kv7.3/7.5 selectivity criteria entry in assay [2] is listed as “A (Selective compounds showed Kv7.4 and/or Kv7.3/7.5 ΔV1/2 equal to or lower than 15 mV (letter A in table 3))”. The Kv7.4 selectivity criteria entry in assay [3] is “A (Selective compounds showed Kv7.4 and/or Kv7.3/7.5 ΔV1/2 equal to or lower than 15 mV (letter A in table 3))”.
Regarding `O=C(NCc1ccnc(OCC(F)(F)F)c1)NC1CCc2ccc(C(F)(F)F)cc21` (centres unmarked) [Compound 117], in assay [1], the EC50 is 1900 nM and the “Kv7.2/7.3 ΔV1/2” value turned out to be 20.5 mV. Moreover, the Kv7.3/7.5 selectivity criteria entry in assay [2] is “A (Selective compounds showed Kv7.4 and/or Kv7.3/7.5 ΔV1/2 equal to or lower than 15 mV (letter A in table 3))”. The Kv7.4 selectivity criteria entry in assay [3] is “A (Selective compounds showed Kv7.4 and/or Kv7.3/7.5 ΔV1/2 equal to or lower than 15 mV (letter A in table 3))”.
Take `O=C(NCCC1(C(F)(F)F)CC1)NCc1ccnc(OCc2ccccc2F)c1` [Compound 19, 1-((2-((2-Fluorobenzyl)oxy)pyridin-4-yl)methyl)-3-(2-(1-(trifluoromethyl)cyclopropyl)ethyl)urea]: in assay [1], the EC50 was determined as 263 nM and the “Kv7.2/7.3 ΔV1/2” value was 23.76 mV. Also, in assay [2], the Kv7.3/7.5 selectivity criteria result is “A (Selective compounds showed Kv7.4 and/or Kv7.3/7.5 ΔV1/2 equal to or lower than 15 mV (letter A in table 3))”. For the same compound, the Kv7.4 selectivity criteria entry in assay [3] is “A (Selective compounds showed Kv7.4 and/or Kv7.3/7.5 ΔV1/2 equal to or lower than 15 mV (letter A in table 3))”.
For the compound `C[C@H](NC(=O)NCCC1(C(F)(F)F)CC1)c1ccnc(OCC(F)(F)F)c1` [Compound 67, (S)-1-(1-(2-(2,2,2-Trifluoroethoxy)pyridin-4-yl)ethyl)-3-(2-(1-(trifluoromethyl)cyclopropyl)ethyl)urea], in assay [1], the EC50 was 5000 nM and the “Kv7.2/7.3 ΔV1/2” value amounted to 23.87 mV. In addition, in assay [2], the Kv7.3/7.5 selectivity criteria entry is “A (Selective compounds showed Kv7.4 and/or Kv7.3/7.5 ΔV1/2 equal to or lower than 15 mV (letter A in table 3))”. Further, the Kv7.4 selectivity criteria result in assay [3] was “A (Selective compounds showed Kv7.4 and/or Kv7.3/7.5 ΔV1/2 equal to or lower than 15 mV (letter A in table 3))”.
Consider `O=C(NCc1ccnc(OCC(F)(F)F)c1)NCC1CCCCC1` [Compound 36, 1-(Cyclohexylmethyl)-3-((2-(2,2,2-trifluoroethoxy)pyridin-4-yl)methyl)urea], for which, in assay [1], the EC50 was 435 nM and the “Kv7.2/7.3 ΔV1/2” value came out at 31.09 mV. Further, the Kv7.3/7.5 selectivity criteria result in assay [2] is “A (Selective compounds showed Kv7.4 and/or Kv7.3/7.5 ΔV1/2 equal to or lower than 15 mV (letter A in table 3))”. Moreover, the Kv7.4 selectivity criteria result in assay [3] is “A (Selective compounds showed Kv7.4 and/or Kv7.3/7.5 ΔV1/2 equal to or lower than 15 mV (letter A in table 3))”.
`O=C(NCCC1(C(F)(F)F)CC1)NCc1ccnc(OCc2ccccc2)c1` [Compound 3, 1-((2-(Benzyloxy)pyridin-4-yl)methyl)-3-(2-(1-(trifluoromethyl)cyclopropyl)ethyl)urea]: in assay [1], the EC50 was 472 nM and the “Kv7.2/7.3 ΔV1/2” value was 25.42 mV. Further, in assay [2], the Kv7.3/7.5 selectivity criteria result is given as “A (Selective compounds showed Kv7.4 and/or Kv7.3/7.5 ΔV1/2 equal to or lower than 15 mV (letter A in table 3))”. For the same compound, in assay [3], the Kv7.4 selectivity criteria entry is “A (Selective compounds showed Kv7.4 and/or Kv7.3/7.5 ΔV1/2 equal to or lower than 15 mV (letter A in table 3))”.
